Assays:
[1] = test system: reactive oxygen species (ROS); assay: ROS inhibition assay in whole blood (neutrophils, DHR-123 flow cytometry); type: cell-based, human; settings: fMLP or PMA stimulated whole blood, potency relative to compound 401, FIG. 1
Procedure: Whole blood (sodium heparin vacutainer) was obtained from two normal, healthy donors from Research Blood Components, Boston, Mass. For each donor sample, two duplicate assays were performed according to the following procedure. Whole blood (100 μl) was added to wells of a 96 deep-well plate. Compounds were serially diluted in Hanks Balanced Salt Solution (HBSS) to achieve a desired dose-response. The resulting diluted solutions (100 μl) were added to the whole blood samples, mixed gently, and incubated for 30 minutes at 37° C., 5% CO2. The blood was then stimulated by addition of Formyl-Methionyl-Leucyl-Phenylalanine (fMLP) (1 μM final concentration) or phorbol myristate acetate (PMA) (10 ng/ml final concentration) and was further incubated for 20 minutes at 37° C., 5% CO2. Dihydrorhodamine 123 (DHR-123) reagent (Invitrogen), a cell-permeable probe that becomes highly fluorescent when oxidized, was then added to the blood at a final concentration of 0.5 μM and incubated for another 20 minutes at 37° C., 5% CO2. The red blood cells were then lysed in 1 ml ammonium chloride-potassium (ACK) lysis buffer (Invitrogen) for 10 minutes at room temperature. The remaining leukocytes (including the neutrophils) were washed once in HBSS and resuspended in HBSS/0.5% paraformaldehyde. To quantify intracellular ROS production, the fluorescence of the oxidized form of DHR-123, which is a fluorescent compound, was measured. The level of oxidized DHR-123 in neutrophils was assessed for each sample by measuring cell fluorescence on a flow cytometer. The IC50 value was calculated using commercially available statistics software and the average IC50 values from the two donors was calculated. The potency of the compound relative to the potency of compound 401 was obtained by dividing the IC50 value of compound 401 by the IC50 value of the compound.

IFN-gamma = IFN-gamma assay (blood donors); type: cell-based, human; settings: for IC50: Homo sapiens
MCP-1 = MCP-1 assay (blood donors); type: cell-based, human; settings: for IC50: Homo sapiens
From the text: MCP-1 is a known pro-inflammatory cytokine that plays important roles in various diseases.

TNF-α = TNF-α inhibition assay in LPS-stimulated whole blood; type: cell-based, human; settings: LPS-induced TNF-α in whole blood, potency relative to compound 401, FIG. 1
Procedure: Whole blood (sodium heparin vacutainer) was obtained from two normal, healthy donors from Research Blood Components, Boston, Mass. For each donor sample, two duplicate assays were performed according to the following procedure. Blood was diluted 1:1 with Opti-MEM® Reduced Serum Medium (Invitrogen) and 100 μl of diluted blood was added to wells of a 96-well plate. The test compounds were serially diluted in Opti-MEM® to create a dose-response. The resulting diluted solutions (50 μl) were then added to the wells containing diluted blood and the mixture was incubated for 15 minutes at 37° C., 5% CO2. Lipopolysaccharide (LPS) strain 113:H10 (obtained from Associates of Cape Cod #E0005) was prepared at a 4× concentration and 50 μl of 4 ng/ml solution was added to the blood to achieve a final concentration of 1 ng/ml. Control wells contained diluted blood and 100 μl Opti-MEM® (negative control) or 50 μl Opti-MEM® plus 50 μl LPS (positive control). Plates were then incubated for 24 h at 37° C., 5% CO2. After incubation, diluted plasma was harvested by centrifugation at 3000 RPM for 2 minutes to pellet the blood cells. Supernatant (diluted plasma) was then transferred into a clean 96-well plate. The diluted plasma was further diluted 1:10 with ELISA reagent diluents and the TNF-α level for each compound was measured following manufacturer's instructions for the DuoSet® ELISAs (R & D Systems). The IC50 value for the compound was calculated using commercially available statistics software and the average IC50 values from the two donors was calculated. The potency of the compound relative to the potency of compound 401 was obtained by dividing the IC50 value of compound 401 by the IC50 value of the compound.

[2] = pentoxifylline and its metabolites; cited from earlier work

Row | SMILES | activity (relative potency) in the ROS inhibition assay [1] | activity (relative potency) in the ROS inhibition assay ([1]; listed as M-2) | IC50 (IFN-gamma; Donor I) [µM] | IC50 (IFN-gamma; Donor II) [µM] | IFN-gamma IC50 values compared with Compounds 400 and 401 (IFN-gamma; one donor) | IFN-gamma IC50 values compared with Compounds 400 and 401 (IFN-gamma; second donor) | IC50 (MCP-1; Donor 1) [µM] | IC50 (MCP-1; Donor 2) [µM] | MCP-1 IC50 values compared with Compounds 400 and 401 (MCP-1; both donors of Table 2) | activity (relative potency) in the TNF-α inhibition assay (TNF-α) | activity (relative potency) in the TNF-α inhibition assay (TNF-α; listed as M-2) | time to peak plasma levels [2]
1 | Cn1cnc2c1c(=O)n(CCCCC(O)CO)c(=O)n2C (stereo not drawn) [Compound 308, 1-(5,6-Dihydroxyhexyl)-3,7-dimethyl-1H-purine-2,6(3H,7H)-dione] | comparable activity | active | 72 | 119 | slightly higher | very similar | 194 | 125 | slightly higher | comparable activity | active | –
2 | Cn1cnc2c1c(=O)n(CCCCC(=O)O)c(=O)n2C [Compound M-4] | significantly lower activity | – | – | – | – | – | – | – | – | significantly lower activity | – | –
3 | CC(=O)CCCCn1c(=O)c2c(ncn2C)n(C)c1=O [Compound 400, 1-(5-oxohexyl)-3,7-dimethylxanthine] | comparable activity | – | 78 | 63 | – | – | 80 | 80 | – | comparable activity | – | within one hour
4 | Cn1cnc2c1c(=O)n(CCCC(=O)O)c(=O)n2C [Compound M-5] | significantly lower activity | – | – | – | – | – | – | – | – | significantly lower activity | – | –
5 | CC(O)C(O)CCCn1c(=O)c2c(ncn2C)n(C)c1=O (stereo not drawn) [Compound M-3] | significantly lower activity | – | – | – | – | – | – | – | – | significantly lower activity | – | –

— patent publication US20140296263A1, “SUBSTITUTED XANTHINE DERIVATIVES” (CONCERT PHARMACEUTICALS, INC., priority 2011, published 2014)
